# Measurements reported in ChEMBL document CHEMBL3046319, “PCR-RFLP detection of the E198A mutation conferring resistance to benzimidazoles in field isolates of Monilinia laxa from Greece” (Crop Prot, 2012).
# Activity calls are given as the source filed them. The rule behind the calls is not given here.
# How the values were obtained:
# Monilinia laxa [1] = assay: Fungicidal activity against Monilinia laxa isolate KX5 assessed as reduction in mycelial growth rate at 1 to 10 ug/ml at 31 degC after 5 days; format: functional, organism-based
# Monilinia laxa [2] = assay: Fungicidal activity against Monilinia laxa isolate MLP7 assessed as reduction in mycelial growth rate at 1 to 10 ug/ml at 28 degC after 8 days; format: functional, organism-based
# Monilinia laxa [3] = assay: Fungicidal activity against Monilinia laxa isolate MLNS1 assessed as reduction in mycelial growth rate at 25 degC after 4 days; format: functional, organism-based; conditions: isolate MLNS1, 96 h
# Monilinia laxa [4] = assay: Fungicidal activity against Monilinia laxa isolate MLX5 assessed as reduction in mycelial growth rate at 1 to 10 ug/ml at 25 to 28 degC; format: functional, organism-based
# Monilinia laxa [5] = assay: Fungicidal activity against Monilinia laxa isolate MLX5 assessed as virulence in prune fruits assessed as virulence treated 10 min prior to mycelial inoculation at 24 degC after 10 days relative to isolate MLX1by pathogenicity bioassay; format: functional
# Monilinia laxa [6] = assay: Fungicidal activity against Monilinia laxa isolate MLG4 assessed as reduction in mycelial growth rate at 25 degC after 4 days; format: functional, organism-based; conditions: isolate MLG4, 96 h
# Monilinia laxa [7] = assay: Fungicidal activity against Monilinia laxa isolate MLC1 assessed as reduction in mycelial growth rate at 25 degC after 4 days; format: functional, organism-based; conditions: isolate MLC1, 96 h
# Monilinia laxa [8] = assay: Fungicidal activity against Monilinia laxa isolate B1 assessed as reduction in mycelial growth rate at 25 degC after 4 days; format: functional, organism-based; conditions: isolate B1, 96 h
# Monilinia laxa [9] = assay: Fungicidal activity against Monilinia laxa isolate MLKS1 assessed as reduction in mycelial growth rate at 1 to 10 ug/ml at 31 degC after 5 days; format: functional, organism-based
# Monilinia laxa [10] = assay: Fungicidal activity against Monilinia laxa isolate MLG6 assessed as reduction in mycelial growth rate at 1 to 10 ug/ml at 31 degC after 5 days; format: functional, organism-based
# Monilinia laxa [11] = assay: Fungicidal activity against Monilinia laxa isolate MLNS2 assessed as reduction in mycelial growth rate at 25 degC after 4 days; format: functional, organism-based; conditions: isolate MLNS2, 96 h
# Monilinia laxa [12] = assay: Fungicidal activity against Monilinia laxa isolate MLG6 assessed as reduction in mycelial growth rate at 25 degC after 4 days; format: functional, organism-based; conditions: isolate MLG6, 96 h
# Monilinia laxa [13] = assay: Fungicidal activity against Monilinia laxa isolate MLA1 assessed as reduction in mycelial growth rate at 1 to 10 ug/ml at 31 degC after 5 days; format: functional, organism-based
# Monilinia laxa [14] = assay: Fungicidal activity against Monilinia laxa isolate MLBO7 assessed as reduction in mycelial growth rate at 1 to 10 ug/ml at 31 degC after 5 days; format: functional, organism-based
# Monilinia laxa [15] = assay: Fungicidal activity against Monilinia laxa isolate MLP2 assessed as mycelial growth at 1 ug/ml at 25 degC after 4 days; format: functional
# Monilinia laxa [16] = assay: Fungicidal activity against Monilinia laxa isolate MLX1 assessed as reduction in mycelial growth rate at 1 to 10 ug/ml at 25 to 28 degC; format: functional, organism-based
# Monilinia laxa [17] = assay: Fungicidal activity against Monilinia laxa isolate MLC2 assessed as virulence in prune fruits assessed as virulence treated 10 min prior to mycelial inoculation at 24 degC after 10 days relative to isolate MLX1by pathogenicity bioassay; format: functional
# Monilinia laxa [18] = assay: Fungicidal activity against Monilinia laxa isolate MLBO1 assessed as reduction in mycelial growth rate at 25 degC after 4 days; format: functional, organism-based; conditions: isolate MLBO1, 96 h
# Monilinia laxa [19] = assay: Fungicidal activity against Monilinia laxa isolate MLX3 assessed as reduction in mycelial growth rate at 1 to 10 ug/ml at 25 to 28 degC; format: functional, organism-based
# Monilinia laxa [20] = assay: Fungicidal activity against Monilinia laxa isolate MLBO3 assessed as reduction in mycelial growth rate at 1 to 10 ug/ml at 31 degC after 5 days; format: functional, organism-based
# Monilinia laxa [21] = assay: Fungicidal activity against Monilinia laxa isolate MLK7 assessed as reduction in mycelial growth rate at 1 to 10 ug/ml at 31 degC after 5 days; format: functional, organism-based
# Monilinia laxa [22] = assay: Fungicidal activity against Monilinia laxa isolate MLBO8 assessed as reduction in mycelial growth rate at 25 degC after 4 days; format: functional, organism-based; conditions: isolate MLBO8, 96 h
# Monilinia laxa [23] = assay: Fungicidal activity against Monilinia laxa isolate MLBO4 assessed as reduction in mycelial growth rate at 1 to 10 ug/ml at 31 degC after 5 days; format: functional, organism-based
# Monilinia laxa [24] = assay: Fungicidal activity against Monilinia laxa isolate MLC4 assessed as reduction in mycelial growth rate at 25 degC after 4 days; format: functional, organism-based; conditions: isolate MLC4, 96 h
# Monilinia laxa [25] = assay: Fungicidal activity against Monilinia laxa isolate KX4 assessed as reduction in mycelial growth rate at 25 degC after 4 days; format: functional, organism-based; conditions: isolate KX4, 96 h
# Monilinia laxa [26] = assay: Fungicidal activity against Monilinia laxa isolate MLG7 assessed as reduction in mycelial growth rate at 1 to 10 ug/ml at 31 degC after 5 days; format: functional, organism-based
# Monilinia laxa [27] = assay: Fungicidal activity against Monilinia laxa isolate B1 assessed as reduction in mycelial growth rate at 1 to 10 ug/ml at 31 degC after 5 days; format: functional, organism-based
# Monilinia laxa [28] = assay: Fungicidal activity against Monilinia laxa isolate MLG1 assessed as reduction in mycelial growth rate at 1 to 10 ug/ml at 31 degC after 5 days; format: functional, organism-based
# Monilinia laxa [29] = assay: Fungicidal activity against Monilinia laxa isolate MLAl8 assessed as reduction in mycelial growth rate at 25 degC after 4 days; format: functional, organism-based; conditions: isolate MLAl8, 96 h
# Monilinia laxa [30] = assay: Fungicidal activity against Monilinia laxa isolate MLP2 assessed as reduction in mycelial growth rate at 1 to 10 ug/ml at 31 degC after 5 days; format: functional, organism-based
# Monilinia laxa [31] = assay: Fungicidal activity against Monilinia laxa isolate MLP4 assessed as mean number of conidia produced in the colony at 25 degC after 12 days by haemocytometer; format: functional
# Monilinia laxa [32] = assay: Fungicidal activity against Monilinia laxa isolate MLX1 assessed as mean number of conidia produced in the colony at 25 degC after 12 days by haemocytometer; format: functional
# Monilinia laxa [33] = assay: Fungicidal activity against Monilinia laxa isolate KX3 assessed as reduction in mycelial growth rate at 25 degC after 4 days; format: functional, organism-based; conditions: isolate KX3, 96 h
# Monilinia laxa [34] = assay: Fungicidal activity against Monilinia laxa isolate MLX5 assessed as mean number of conidia produced in the colony at 25 degC after 12 days by haemocytometer; format: functional
# Monilinia laxa [35] = assay: Fungicidal activity against Monilinia laxa isolate MLP4 assessed as reduction in mycelial growth rate at 1 to 10 ug/ml at 28 degC after 8 days; format: functional, organism-based
# Monilinia laxa [36] = assay: Fungicidal activity against Monilinia laxa isolate MLA1 assessed as mycelial growth at 1 ug/ml at 25 degC after 4 days; format: functional
# Monilinia laxa [37] = assay: Fungicidal activity against Monilinia laxa isolate KX5 assessed as reduction in mycelial growth rate at 25 degC after 4 days; format: functional, organism-based; conditions: isolate KX5, 96 h
# Monilinia laxa [38] = assay: Fungicidal activity against Monilinia laxa isolate MLBO5 assessed as reduction in mycelial growth rate at 25 degC after 4 days; format: functional, organism-based; conditions: isolate MLBO5, 96 h
# Monilinia laxa [39] = assay: Fungicidal activity against Monilinia laxa isolate MLBO2 assessed as reduction in mycelial growth rate at 1 to 10 ug/ml at 31 degC after 5 days; format: functional, organism-based
# Monilinia laxa [40] = assay: Fungicidal activity against Monilinia laxa isolate MLX5 assessed as reduction in mycelial growth rate at 25 degC after 4 days; format: functional, organism-based; conditions: isolate MLX5, 96 h
# Monilinia laxa [41] = assay: Fungicidal activity against Monilinia laxa isolate MLKS2 assessed as reduction in mycelial growth rate at 1 to 10 ug/ml at 31 degC after 5 days; format: functional, organism-based
structure (smiles),measurement,setting,value
COC(=O)Nc1nc2ccccc2[nH]1 [CARBENDAZIM],inhibition,Monilinia laxa [1],Active
same,inhibition,Monilinia laxa [2],inactive
same,EC50,Monilinia laxa [3],> 50 µg/mL
same,inhibition,Monilinia laxa [4],inactive
same,Activity,Monilinia laxa [5],96.29%
same,EC50,Monilinia laxa [6],0.11 µg/mL
same,EC50,Monilinia laxa [7],0.03 µg/mL
same,EC50,Monilinia laxa [8],> 50 µg/mL
same,inhibition,Monilinia laxa [9],Active
same,inhibition,Monilinia laxa [10],Active
same,EC50,Monilinia laxa [11],> 50 µg/mL
same,EC50,Monilinia laxa [12],0.12 µg/mL
same,inhibition,Monilinia laxa [13],Active
same,inhibition,Monilinia laxa [14],Active
same,Activity,Monilinia laxa [15],0%
same,inhibition,Monilinia laxa [16],inactive
same,Activity,Monilinia laxa [17],98.52%
same,EC50,Monilinia laxa [18],0.11 µg/mL
same,inhibition,Monilinia laxa [19],inactive
same,inhibition,Monilinia laxa [20],Active
same,inhibition,Monilinia laxa [21],Active
same,EC50,Monilinia laxa [22],0.06 µg/mL
same,inhibition,Monilinia laxa [23],Active
same,EC50,Monilinia laxa [24],0.09 µg/mL
same,EC50,Monilinia laxa [25],> 50 µg/mL
same,inhibition,Monilinia laxa [26],Active
same,inhibition,Monilinia laxa [27],Active
same,inhibition,Monilinia laxa [28],Active
same,EC50,Monilinia laxa [29],> 50 µg/mL
same,inhibition,Monilinia laxa [30],Active
same,Activity,Monilinia laxa [31],3.98 /cm2
same,Activity,Monilinia laxa [32],4 /cm2
same,EC50,Monilinia laxa [33],0.09 µg/mL
same,Activity,Monilinia laxa [34],4.4 /cm2
same,inhibition,Monilinia laxa [35],inactive
same,Activity,Monilinia laxa [36],0%
same,EC50,Monilinia laxa [37],> 50 µg/mL
same,EC50,Monilinia laxa [38],0.07 µg/mL
same,inhibition,Monilinia laxa [39],Active
same,EC50,Monilinia laxa [40],> 50 µg/mL
same,inhibition,Monilinia laxa [41],Active
